Patent US20040259783A1, “Pharmaceutical compositions of marine sponge microciona prolifera” (priority 2001, published 2004)

Each compound was assayed on rat aortic smooth muscle cells, A-10 (assay: Smooth muscle cell migration in vitro assay (scrape injury)). Details: MAF carbohydrates and MAF 2.7 K extract; concentration giving 100% inhibition of smooth muscle cell motility; incubation up to 24 hrs.
Type: cell-based
Procedure: The following in vitro assays were conducted to illustrate the effect of peptides, carbohydrates and extract (2.7K) on the smooth muscle cell migration. The cells used in the following example were rat aortic smooth muscle cells, A-10. The cells were seeded at 2.5×10^5 cells/well in 6 well plates using Dulbecco's Modified Eagle Medium (Gibco BRL Cat. # 11885-084),10% FBS and 1% Antibiotic Antimycotic (Gibco BRL Cat. # 15240). Confluency of cells after about 8 hrs was between 80˜90%. Cells were injured with the single edge cell scraper (one injury/well) then washed twice with PBS and treated with peptides B-1 (SEQ ID NO:1), B-2 (SEQ ID NO:2 ), B-3 (SEQ ID NO: 3), B-6, (SEQ ID NO: 4), B-9(SEQ ID NO:5), B-10(SEQ ID NO:6) AND B-11(SEQ ID NO: 7) at concentrations ranging from 10 μg/ml ml to 100 μg/ml. Images were taken using a X5 modulation objective (Zeiss, Germany) attached to a Zeiss Axiovert 100 inverted microscope equipped with Hoffman Modulation contrast optical filters (Greenvale, N.Y.).
The images were taken at zero time and following the incubation of smooth muscle cells with peptide, carbohydrates and extracts for a period of up to 24 hrs (FIGS. 1, 2, 3 and 4).
`CC(=O)N[C@H]1[C@H](O[C@@H]2[C@H](O)[C@H](C)OC(O)[C@H]2O)O[C@H](CO)[C@@H](O)[C@@H]1O` (stereo partly shown) [RR-1 disaccharides, GlcNAcβ1-3Fuc] was tested, and the “100% Inhibition of Cell Motility” value was 5˜10 μg/mL.
For `CC(=O)NC1C(OC2C(O)C(C)OC(O)C2O)OC(CO)C(OC2OC3COC(C)(C(=O)O)OC3C(O)C2O)C1O` (stereo not shown) [RR-5 trisaccharides, (4,6-Pyr)Galβ1-4GlcNAcβ1-3Fuc], the “100% Inhibition of Cell Motility” value was 25 µg/mL.

Same assay, conditions: MAFp3 peptides; concentration giving 100% inhibition of smooth muscle cell motility; incubation up to 24 hrs
For “CFLTPHGVELHK (artificial peptide derived from Microciona prolifera) [Peptide B-10, 12 amino acid synthetic peptide derived from MAF]”, the “100% Inhibition of Cell Motility” value was 100 µg/mL.
For “EDQLDAMNLS (artificial peptide derived from Microciona prolifera) [Peptide B-3, 10 amino acid synthetic peptide derived from MAF]”, the “100% Inhibition of Cell Motility” value was 50 µg/mL.
For “GSGIGDEPTTS (artificial peptide derived from Microciona prolifera) [Peptide B-6, 11 amino acid synthetic peptide derived from MAF]”, the “100% Inhibition of Cell Motility” value was 50˜75 μg/ml.
For “GVSVRRYRNRVRI (listed as Microciona prolifera) [Peptide B-1]”, the “100% Inhibition of Cell Motility” value was 100 µg/mL.
With “NGSIGPRGLPGVRGDRGKRGK (artificial peptide derived from Microciona prolifera) [Peptide B-11]” the “100% Inhibition of Cell Motility” value was 75˜100 μg/ml.
In the case of “RFVINITTSGSD (artificial peptide derived from Microciona prolifera) [Peptide B-9, 12 amino acid synthetic peptide derived from MAF]”, the “100% Inhibition of Cell Motility” value is reported as 20 µg/mL.
With “VGFDPYDYEVNEADG (artificial peptide derived from Microciona prolifera) [Peptide B-2, 15 amino acid synthetic peptide, derived from MAF]” the “100% Inhibition of Cell Motility” value was 50 to 100 µg/mL.

The compounds below were run on EAE mouse model (assay: EAE mouse model (acute EAE induced with MBP and PTX)). Details: 5 mg/kg daily; improvement in mean clinical score and delay in progression to disability.
Type: in vivo
Procedure: The EAE mouse model is the standard animal model used for testing therapeutic compounds in the treatment of multiple sclerosis (MS). Acute EAE was induced by immunization of 3 months old SJL/J female mice (Jackson Lab.; Bar Harbor, Me.) with the MBP (myelin basic protein) and PTX (pertussis toxin). Each animal received an s.c. injection at tail base of 200 μg MBP in 0.1 ml of CFA and received an i.v. injection of 200 ng of PTX; pertussis toxin was injected again 48 hours later. Mice (4 animals per group) were treated with the peptide B-1 (SEQ ID NO: 1) or peptide B-9 (SEQ ID NO: 5) at a dose of 5 mg/kg daily; injections starting on the day of first immunization. Treatment was stopped at time of sacrifice. Mice were monitored daily from day 7 after immunization for clinical signs of EAE and were scored on a scale of 0 to 5. A score of 0 represented the absence of signs while a score of 5 was given to moribund animals.
In the case of “GVSVRRYRNRVRI (listed as Microciona prolifera) [Peptide B-1]”, the “clinical signs of MS symptoms” value is reported as “significant attenuation”.
“RFVINITTSGSD (artificial peptide derived from Microciona prolifera) [Peptide B-9, 12 amino acid synthetic peptide derived from MAF]” was tested, and the “clinical signs of MS symptoms” value was “significant attenuation”.

Same assay, conditions: day 15; 5 mg/kg daily; scale of 0 to 5; PBS treated mice 1.7 (B-9 study), 1.5 (B-1 study)
Compound “GVSVRRYRNRVRI (listed as Microciona prolifera) [Peptide B-1]” has a mean clinical score of 0.7.
For “RFVINITTSGSD (artificial peptide derived from Microciona prolifera) [Peptide B-9, 12 amino acid synthetic peptide derived from MAF]”, the mean clinical score was 0.6.
